These are literature values, as cited in paper PMC11891579, “Fluorescent PyrAte-(S)-citalopram conjugates enable imaging of the serotonin transporter in living tissue” (Chemical Science, 2025).

The data set has as its system organic cation transporter 3 (OCT3). Also noted: method as in PMID 34884800. To be noted: cited from earlier work.

On to `CN(C)CCC[C@@]1(c2ccc(F)cc2)OCc2cc(C#N)ccc21` [(S)-citalopram], for which the “affinity towards OCT3” value is given as “does not display affinity towards OCT3”.
